Laboratory results from patent US20240158446A1, “CYCLIC COMPOUND HAVING SELECTIVE INHIBITORY ACTION ON KRAS OVER HRAS AND NRAS” (CHUGAI SEIYAKU KABUSHIKI KAISHA, priority 2021, published 2024).
Like-named read-outs stand apart in the source and are kept apart here.

Assays:
[1] = molecular target: GDP-bound NRAS wild-type protein (Homo sapiens, UniProt P01111); test: Binding to NRAS by surface plasmon resonance (SPR), Single Cycle Kinetics; settings: for NRAS/KRAS (ratio of KD value for NRAS to KD value for KRAS): SPR, GDP-bound NRAS wild-type protein vs GDP-bound KRAS wild-type protein; for NRAS/KRAS (ratio of KD value with respect to GDP-bound NRAS wild-type protein to KD value with respect to KRAS): SPR KD ratio NRAS/KRAS, class symbols
[2] = tested on: human lung cancer strain NCI-H441;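 further: cell proliferation inhibition after four days measured by CellTiter-Glo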
[3] = molecular target: GDP-bound HRAS wild-type protein (Homo sapiens, UniProt P01112); test: Binding to HRAS by surface plasmon resonance (SPR), Single Cycle Kinetics; settings: for HRAS/KRAS (ratio of KD value for HRAS to KD value for KRAS): SPR, GDP-bound HRAS wild-type protein vs GDP-bound KRAS wild-type protein; for HRAS/KRAS (ratio of KD value with respect to GDP-bound HRAS wild-type protein to KD value with respect to KRAS): SPR KD ratio HRAS/KRAS, class symbols
[4] = molecular target: GDP-bound KRAS wild-type protein (Homo sapiens, UniProt P01116); test: Binding to KRAS by surface plasmon resonance (SPR), Single Cycle Kinetics; settings: GDP-bound KRAS wild-type protein, read-out: KRAS KD
[5] = SPR, Single Cycle Kinetics, 1:1 binding model
[6] = SPR Single Cycle Kinetics, 1:1 binding model

Chain of GDP-bound HRAS wild-type protein (P01112 whole entry): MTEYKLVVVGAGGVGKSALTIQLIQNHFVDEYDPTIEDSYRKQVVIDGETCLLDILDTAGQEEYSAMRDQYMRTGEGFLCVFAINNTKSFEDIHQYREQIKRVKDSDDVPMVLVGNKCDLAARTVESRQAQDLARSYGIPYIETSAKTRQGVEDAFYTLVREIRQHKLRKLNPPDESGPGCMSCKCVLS
Chain of GDP-bound NRAS wild-type protein (P01111 whole entry): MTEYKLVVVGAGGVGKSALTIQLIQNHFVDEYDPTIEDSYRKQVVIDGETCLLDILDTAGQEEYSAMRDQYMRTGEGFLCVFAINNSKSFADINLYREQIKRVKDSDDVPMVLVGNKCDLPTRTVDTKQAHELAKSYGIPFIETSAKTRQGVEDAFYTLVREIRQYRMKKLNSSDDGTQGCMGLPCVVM
Chain of GDP-bound KRAS wild-type protein (P01116 whole entry): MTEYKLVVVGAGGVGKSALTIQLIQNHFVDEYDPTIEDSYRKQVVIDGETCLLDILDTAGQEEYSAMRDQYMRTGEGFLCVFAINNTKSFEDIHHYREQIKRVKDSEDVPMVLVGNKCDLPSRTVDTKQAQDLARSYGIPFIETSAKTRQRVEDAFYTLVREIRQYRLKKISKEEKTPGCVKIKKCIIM

Row | SMILES | NRAS/KRAS (ratio of KD value for NRAS to KD value for KRAS) ([1]; KD ratio class) | IC50 [2] [nM] | HRAS/KRAS (ratio of KD value for HRAS to KD value for KRAS) ([3]; KD ratio class) | Kd [4, 5] [nM] | NRAS/KRAS (ratio of KD value with respect to GDP-bound NRAS wild-type protein to KD value with respect to KRAS) [1] | HRAS/KRAS (ratio of KD value with respect to GDP-bound HRAS wild-type protein to KD value with respect to KRAS) [3] | Kd [4, 6] [nM] | NRAS/KRAS (ratio of KD value for NRAS to KD value for KRAS) [1] | HRAS/KRAS (ratio of KD value for HRAS to KD value for KRAS) [3] | Kd ([4]; SPR, Single Cycle Kinetics) [nM]
1 | CCO[C@@H]1C[C@H]2C(=O)NC3(CCC3)C(=O)N(C)[C@@H](C3CCCC3)C(=O)N(C)[C@H](C(=O)N(C)C)CC(=O)N(C)[C@@H](CC3CCCC3)C(=O)N[C@@H]([C@@H](C)CC)C(=O)N(C)CC(=O)N(C)[C@H]3C/C=C\CCN(C3=O)[C@@H](Cc3ccc(F)cc3)C(=O)N(C)CC(=O)N[C@@H](CCc3ccc4sccc4c3)C(=O)N2C1 [PP1390] | A (a compound having 10 or more and less than 20 is denoted as A) | 305 | A (a compound having 10 or more and less than 20 is denoted as A) | 1.1 | – | – | – | – | – | –
2 | CCO[C@@H]1C[C@H]2C(=O)NC3(CC(C)(C)C3)C(=O)N(C)[C@@H](C3CCCC3)C(=O)N(C)[C@H](C(=O)N(C)C)CC(=O)N(C)[C@@H](CC3CCC3)C(=O)N[C@@H]([C@@H](C)CC)C(=O)N(C)CC(=O)N(C)[C@H]3C/C=C\CCN(C3=O)[C@@H](Cc3ccc(C(F)(F)F)cc3)C(=O)N(C)CC(=O)N[C@@H](CCc3ccc(C(F)(F)F)c(OC)c3)C(=O)N2C1 [PP1564] | A (a compound having 10 or more and less than 20 is denoted as A) | 3 | A (a compound having 10 or more and less than 20 is denoted as A) | 0.073 | – | – | – | – | – | –
3 | CCOC[C@H]1C(=O)N[C@@H]([C@@H](C)CC)C(=O)N(C2CC2)CC(=O)N(C)[C@H]2C/C=C\CCN(C2=O)[C@@H](Cc2ccc(C)cc2)C(=O)N(C)CC(=O)N[C@@H](CCc2ccc(Cl)c(Cl)c2)C(=O)N2C[C@H](OCC)C[C@H]2C(=O)NC2(CC(C)(C)C2)C(=O)N(C)[C@@H](CC2CCC2)C(=O)N(C)[C@H](C(=O)N(C)C)CC(=O)N1C [PP2762] | – | 122 | – | – | A (a compound having 10 or more and less than 20 is denoted as A) | A (a compound having 10 or more and less than 20 is denoted as A) | 2.9 | – | – | –
4 | CCCOC[C@H]1C(=O)N[C@@H]([C@@H](C)CC)C(=O)N(C)CC(=O)N(C)[C@H]2C/C=C\CCN(C2=O)[C@@H](CC2CCC(F)(F)CC2)C(=O)N(C)CC(=O)N[C@@H](CCc2ccc(C(F)(F)F)c(OC)c2)C(=O)N2C[C@@H](C)C[C@H]2C(=O)N(C)C2(CCC2)C(=O)N(C)[C@@H](C2CCCC2)C(=O)N(C)[C@H](C(=O)N(C)C)CC(=O)N1C [PP2377] | – | 5.7 | – | – | – | – | – | A (a compound having 10 or more and less than 20 is denoted as A) | A (a compound having 10 or more and less than 20 is denoted as A) | 0.32
5 | CCC(CC)[C@H]1C(=O)N(C)[C@H](C(=O)N(C)C)CC(=O)N(C)[C@@H](COC)C(=O)N[C@@H]([C@@H](C)CC)C(=O)N(C)CC(=O)N(C)[C@H]2C/C=C\CCN(C2=O)[C@@H](Cc2ccc(C(F)F)cc2)C(=O)N(C)CC(=O)N[C@@H](CCc2ccc(Cl)c(Cl)c2)C(=O)N2C[C@H](OC3CCCC3)C[C@H]2C(=O)NC2(CC(C)(C)C2)C(=O)N1C [PP2649] | – | 61 | – | – | AA (a compound having 20 or more is denoted as AA) | A (a compound having 10 or more and less than 20 is denoted as A) | 0.4 | – | – | –
6 | C=CCC[C@H]1C(=O)N[C@@H]([C@@H](C)CC)C(=O)N(C)CC(=O)N(C)[C@H]2CCCCCN(C2=O)[C@@H](Cc2ccc(C(F)(F)F)cc2)C(=O)N(C)CC(=O)N[C@@H](CCc2cc(F)c(C(F)(F)F)c(F)c2)C(=O)N2C[C@H](OCC)C[C@H]2C(=O)N[C@](C)(CC=C)C(=O)N(C)[C@@H](C2CCCC2)C(=O)N(C)[C@H](C(=O)N2CCOCC2)CC(=O)N1C [PP0879] | – | 195 | – | – | – | – | – | B (a compound having 3 or more and less than 10 is denoted as B) | B (a compound having 3 or more and less than 10 is denoted as B) | 8.6
7 | CC[C@H](C)[C@@H]1NC(=O)[C@H](CC)N(C)C(=O)C[C@@H](C(=O)N(C)C)N(C)C(=O)[C@H](C2CCCC2)N(C)C(=O)C2(CCC2)NC(=O)[C@H](COC)N(C)C(=O)[C@H](CCc2cc(F)c(C(F)(F)F)c(F)c2)NC(=O)CN(C)C(=O)[C@H](Cc2ccc(C(F)(F)F)cc2)N2CC/C=C\C[C@@H](C2=O)N(C)C(=O)CN(C)C1=O [PP1145] | – | 140 | – | – | – | – | – | A (a compound having 10 or more and less than 20 is denoted as A) | B (a compound having 3 or more and less than 10 is denoted as B) | 0.21
8 | CC[C@H](C)[C@@H]1NC(=O)[C@H](CC)N(C)C(=O)C[C@@H](C(=O)N(C)C)N(C)C(=O)[C@H](C2CCCC2)N(C)C(=O)C2(CCC2)NC(=O)[C@@H]2C[C@@H](C(F)(F)F)CN2C(=O)[C@H](CCc2cc(F)c(C(F)(F)F)c(F)c2)NC(=O)CN(C)C(=O)[C@H](CC2CCCCC2)N2CC/C=C\C[C@@H](C2=O)N(C)C(=O)CN(C)C1=O [PP1465] | A (a compound having 10 or more and less than 20 is denoted as A) | 34.1 | A (a compound having 10 or more and less than 20 is denoted as A) | 0.36 | – | – | – | – | – | –
9 | CC[C@H](C)[C@@H]1NC(=O)[C@H](COC)N(C)C(=O)C[C@@H](C(=O)N2CCOCC2)N(C)C(=O)[C@H](C2CCCC2)N(C)C(=O)C2(CCC2)NC(=O)[C@@H]2CCCN2C(=O)[C@H](CCc2cc(F)c(C(F)(F)F)c(F)c2)NC(=O)CN(C)C(=O)[C@H](Cc2ccc(C(F)(F)F)cc2)N2CCCCC[C@@H](C2=O)N(C)C(=O)CNC1=O [PP0860] | – | 143 | – | – | – | – | – | B (a compound having 3 or more and less than 10 is denoted as B) | B (a compound having 3 or more and less than 10 is denoted as B) | 1.1
10 | CC[C@H](C)[C@@H]1NC(=O)[C@H](CC(C)C)N(C)C(=O)C[C@@H](C(=O)N(C)CC)N(C)C(=O)[C@H](C2CCCC2)N(C)C(=O)C2(CC(C)(C)C2)NC(=O)[C@@H]2C[C@H](C)CN2C(=O)[C@H](CCc2ccc(C(F)(F)F)c(OC)c2)NC(=O)CN(C)C(=O)[C@H](Cc2ccc(C)cc2)N2CC/C=C\C[C@@H](C2=O)N(C)C(=O)[C@@H]2CCCN2C1=O [PP2410] | – | 108 | – | – | – | – | – | A (a compound having 10 or more and less than 20 is denoted as A) | A (a compound having 10 or more and less than 20 is denoted as A) | 1.1
11 | CCO[C@@H]1C[C@H]2C(=O)NC3(CCC3)C(=O)N(C)[C@@H](C(CC)CC)C(=O)N(C)[C@H](C(=O)N(C)C)CC(=O)N(C)[C@@H](CC3CC3)C(=O)N[C@@H]([C@@H](C)CC)C(=O)N(C)CC(=O)N(C)[C@H]3C/C=C\CCN(C3=O)[C@@H](Cc3ccc(C(F)(F)F)cc3)C(=O)N(C)CC(=O)N[C@@H](CCc3ccc(C(F)(F)F)c(OC)c3)C(=O)N2C1 [PP1211] | A (a compound having 10 or more and less than 20 is denoted as A) | 26.8 | B (a compound having 3 or more and less than 10 is denoted as B) | 0.27 | – | – | – | – | – | –
12 | CCCOC[C@H]1C(=O)N[C@@H]([C@@H](C)CC)C(=O)N(C)CC(=O)N(C)[C@H]2C/C=C\CCN(C2=O)[C@@H](Cc2ccc(C)cc2)C(=O)N(C)CC(=O)N[C@@H](CCc2cc(F)c(C(F)(F)F)c(F)c2)C(=O)N2C[C@H](OCC)C[C@H]2C(=O)NC2(CC(C)(C)C2)C(=O)N(C)[C@@H](CC(C)(C)C)C(=O)N(C)[C@H](C(=O)N(C)C)CC(=O)N1C [PP2708] | – | 5.1 | – | – | A (a compound having 10 or more and less than 20 is denoted as A) | A (a compound having 10 or more and less than 20 is denoted as A) | 0.072 | – | – | –
13 | CCO[C@@H]1C[C@H]2C(=O)NC3(CCC3)C(=O)N(C)[C@@H](C3CCCC3)C(=O)N(C)[C@H](C(=O)N3CCOCC3)CC(=O)N(C)[C@@H](CC3CCC3)C(=O)N[C@@H]([C@@H](C)CC)C(=O)N(C)CC(=O)N(C)[C@H]3C/C=C\CCN(C3=O)[C@@H](Cc3ccc(C)cc3)C(=O)N(C)CC(=O)N[C@@H](CCc3cc(F)c(C(F)(F)F)c(F)c3)C(=O)N2C1 [PP1424] | A (a compound having 10 or more and less than 20 is denoted as A) | 26.3 | A (a compound having 10 or more and less than 20 is denoted as A) | 0.23 | – | – | – | – | – | –
